From patent US20020086278A1, “CHROMOGENIC MEDIA CONTAINING BLOOD OR HEMIN” (priority 1999, published 2002)
Entries after “also recorded” stand apart in the source; their conditions may differ. Read-outs that look alike come from different tables or passages of the source.

Key:
S. agalactiae 12386 = assay: Example 2: effect of incubation conditions on colony color formation; assay type: cell-based, Streptococcus agalactiae; details: 0.004 g/plate, 24 h, CO2
[1] = test system: Aeromonas hydrophilia (aehy); assay: Example 3: colony color on chromogenic TSA II with 5% sheep blood (chromogen in medium); assay type: cell-based; details: for Colony Color: CO2, 18 h
[2] = test system: Pseudomonas aeruginosa (psae); assay: as above; assay type: cell-based; details: for Colony Color: CO2, 18 h
Salmonella spp. (sasp) = assay type: cell-based; details: for Colony Color: CO2, 18 h
S pyogenes (stpy) = assay: Example 3: colony color on chromogenic TSA II with 5% sheep blood (chromogen in medium); assay type: cell-based; details: CO2, 18 h
[3] = test system: Entercoccus faecalis (enfa); assay: as above; assay type: cell-based; details: for Colony Color: CO2, 18 h
[4] = test system: Branhamella catarrhalis 25238; assay: Example 1: growth and colony color on plates surface-spread with chromogen; assay type: cell-based; details: TSA Plain; B. catt 25258
milu 9341 = assay: Example 3: colony color on chromogenic TSA II with 5% sheep blood (chromogen in medium); assay type: cell-based; details: CO2, 18 h
Group B Strep. 12386 = assay: Example 1: growth and colony color on plates surface-spread with chromogen; assay type: cell-based; details: for Color: Group B Strep 12386
Candida albicans (caal) = assay: Example 3: colony color on chromogenic TSA II with 5% sheep blood (chromogen in medium); assay type: cell-based
E. faecium (enfu) = assay: as above; assay type: cell-based
cakr 34135 = assay: as above; assay type: cell-based; details: CO2, 18 h
[5] = test system: Streptococcus agalactiae (stag); assay: as above; assay type: cell-based; details: chromogenic TSA II with 5% Sheep Blood, 0.1 g/l; 3 strains tested
[6] = test system: Staphylococcus Coag Neg (step); assay: as above; assay type: cell-based; details: for Colony Color on Various Chromogenic TSA II with 5% Sheep Blood: CO2, 18 h
S. milleri (stmi) = assay: as above; assay type: cell-based
[7] = test system: Klebsiella pneumoniae (klpn); assay: as above; assay type: cell-based; details: for Colony Color: CO2, 18 h
S. pneumoniae (stpn) = assay: as above; assay type: cell-based; details: for Colony Color on Various Chromogenic TSA II with 5% Sheep Blood: CO2, 18 h
N. gonorrhoeae 35201 = assay: Example 1: growth and colony color on plates surface-spread with chromogen; assay type: cell-based; details: Summary of Table I; N. gonorrhoeae 35201
[8] = test system: Branhamella catarrhalis (brca); assay: Example 3: colony color on chromogenic TSA II with 5% sheep blood (chromogen in medium); assay type: cell-based; details: for Colony Color: CO2, 18 h
[9] = test system: Gardnerella vaginalis 14019; assay: Example 1: growth and colony color on plates surface-spread with chromogen; assay type: cell-based; details: Summary of Table I; G. vaginalis 14014
[10] = test system: Serratia marcescens (sema); assay: Example 3: colony color on chromogenic TSA II with 5% sheep blood (chromogen in medium); assay type: cell-based
[11] = chromogenic TSA II with 5% Sheep Blood, 0.1 g/l, 3 strains tested
[12] = chromogenic TSA II with 5% Sheep Blood, 0.1 g/l, 2 strains tested
[13] = chromogenic TSA II with 5% Sheep Blood, 0.1 g/l, 6 strains tested
[14] = chromogenic TSA II with 5% Sheep Blood, 0.1 g/l, 1 strain tested

O=C(O)[C@H]1O[C@@H](Oc2c[nH]c3ccc(Br)c(Cl)c23)[C@H](O)[C@@H](O)[C@@H]1O [X-Glucuro, X-Glucuronide]
Colony Color (S. agalactiae 12386; Chocolate II Agar): blue (d) | Colony Color (S. agalactiae 12386; TSA II 5% Sheep Blood): blue (d) | Colony Color ([1]; aehy 7965): 0 | Colony Color ([1]; aehy 7966): 0 | Colony Color ([1]; aehy 49847): 0 | Colony Color (Summary) [1, 11]: 0 | Colony Color (Summary) [2, 11]: 0 | Colony Color ([2]; psae 9027): 0 | Colony Color ([2]; psae 15442): 0 | Colony Color ([2]; psae 33607): 0 | Colony Color (Summary) (Salmonella spp. (sasp); [12]): 0 | Colony Color (Salmonella spp. (sasp); saty 19430): 0 | Colony Color (Salmonella spp. (sasp); satym 14028): 0 | Colony Color on Various Chromogenic TSA II with 5% Sheep Blood (S pyogenes (stpy); stpy 51339): db beta | Colony Color on Various Chromogenic TSA II with 5% Sheep Blood (S pyogenes (stpy); stpy t027): 0 | Colony Color on Various Chromogenic TSA II with 5% Sheep Blood (S pyogenes (stpy); stpy t028): 0 | Colony Color on Various Chromogenic TSA II with 5% Sheep Blood (S pyogenes (stpy); stpy t029): 0 | Colony Color on Various Chromogenic TSA II with 5% Sheep Blood (S pyogenes (stpy); stpy t030): 0 | Colony Color (Summary) [3, 13]: 0 | Colony Color ([3]; enfa 597): 0 | Colony Color ([3]; enfa 10741): 0 | Colony Color ([3]; enfa 12953): 0 | Colony Color ([3]; enfa 14506): 0 | Colony Color ([3]; enfa 29212): 0 | Growth [4]: >> | Colony Color (milu 9341): ly | Color (Group B Strep. 12386; Choc II): blue | Substrates Producing Color (Group B Strep. 12386; Summary of Table I, Group B Strep. 12386): Glucuro | Color (Group B Strep. 12386; TSA II 5SB): blue with beta hemolysis; also recorded: blue (a) | Color (Group B Strep. 12386; TSA Plain): blue | Colony Color (Candida albicans (caal); caal 10231, CO2, 18 h): 0 | Colony Color (Summary) (Candida albicans (caal); [12]): 0 | Colony Color (Summary) (E. faecium (enfu); [14]): 0 | Colony Color (E. faecium (enfu); enfu 49032, CO2, 18 h): 0 | Colony Color (cakr 34135): 0 | Colony Color (Summary) [5]: 0 | Colony Color (Summary) ([6]; chromogenic TSA II with 5% Sheep Blood, 0.1 g/l, 5 strains tested): 0 | Colony Color on Various Chromogenic TSA II with 5% Sheep Blood ([6]; step 12228): 0 | Colony Color on Various Chromogenic TSA II with 5% Sheep Blood ([6]; step cdc1): 0 | Colony Color on Various Chromogenic TSA II with 5% Sheep Blood ([6]; step cdc4): 0 | Colony Color on Various Chromogenic TSA II with 5% Sheep Blood ([6]; stha cdc2): 0 | Colony Color on Various Chromogenic TSA II with 5% Sheep Blood ([6]; stsa cdc3): 0 | Colony Color (Summary) (S. milleri (stmi); [12]): 0 | Colony Color on Various Chromogenic TSA II with 5% Sheep Blood (S. milleri (stmi); stmi 6242, CO2, 18 h): 0 | Colony Color (Summary) [7, 11]: 0 | Colony Color ([7]; klpn 13883): 0 | Colony Color ([7]; klpn 33495): 0 | Colony Color ([7]; klpn 33606): 0 | Colony Color (Summary) (S. pneumoniae (stpn); [13]): 0 | Colony Color on Various Chromogenic TSA II with 5% Sheep Blood (S. pneumoniae (stpn); stpn t259): 0 | Colony Color on Various Chromogenic TSA II with 5% Sheep Blood (S. pneumoniae (stpn); stpn t260): 0 | Colony Color on Various Chromogenic TSA II with 5% Sheep Blood (S. pneumoniae (stpn); stpn t331): 0 | Colony Color on Various Chromogenic TSA II with 5% Sheep Blood (S. pneumoniae (stpn); stpn t628): 0 | Substrates Producing Growth Inhibition (N. gonorrhoeae 35201): X-Glucuro | Colony Color ([8]; brca 25238): 0 | Colony Color ([8]; brca 25240): 0 | Colony Color (Summary) [8, 12]: 0 | Substrates Producing Growth Inhibition [9]: Glucuro | Colony Color (Summary) [10, 14]: 0 | Colony Color ([10]; sema 13880, CO2, 18 h): 0
